Test results as given in US20130131161A1, “METHODS AND COMPOSITIONS FOR CARDIOVASCULAR DISEASES AND CONDITIONS” (priority 2009, published 2013).

Test system: Human umbilical vein endothelial cells (HUVECs)
Test: eNOS activity analysis: NO, ONOO− and NO/ONOO− release from HUVECs of 50 genotyped donors in response to LA-419 (Example 2)
Assay type: cell-based
Conditions: for Fold difference NO (mean ± sd) / Fold difference NO/ONOO− (mean ± sd) / Fold difference ONOO− (mean ± sd): (LA-419 1 μM)/(control)
Description: Concurrent measurements of NO and ONOO^− were carried out with tandem electrochemical nanosensors combined into one working unit with a total diameter of 200-500 nm (FIG. 1). Their design was based on previously developed and well-characterized chemically modified carbon-fiber technology (Malinski and Taha, 1992; Lvovich and Scheeline, 1997). Each of the nanosensors was made by depositing a sensing material on the tip of a carbon fiber (length 4-5 μm, diameter 0.2-0.5 μm). The fibers were sealed with nonconductive epoxy and electrically connected to copper wires with conductive silver epoxy. A conductive film of polymeric nickel (II) tetrakis(3-methoxy-4-hydroxyphenyl)porphyrin for the NO-sensor and polymeric film of Mn (III) [2.2]paracyclophanylporphyrin was used for the ONOO^−-sensor.
A module of NO/ONOO^− nanosensors (diameter 1-2 μm) with a platinum wire (0.1 mm) counter electrode and saturated calomel reference electrode (SCE) were applied. Differential pulse voltammetry (DPV) and amperometry were performed with a computer-based Gamry VFP600 multichannel potentiostat. DPV was used to measure the basal NO and ONOO^− concentrations, and amperometry was used to measure changes in NO and ONOO^− concentrations from its basal level with time. The DPV current at the peak potential characteristic for NO oxidation (0.65 V) and ONOO^− reduction (−0.45 V) was directly proportional to the local concentrations of these compounds in the immediate vicinity of the sensor. Linear calibration curves (current vs. concentration) were constructed for each sensor from 10 nM to 3 μM before and after measurements with aliquots of NO and ONOO^− standard solutions, respectively. The detection limit of the sensors was 1.0 nM.
The quantification of each analyte (concentration in nM) was performed using a maximum current from amperograms and standard calibration curves. A reproducibility of measurements with nanosensors is relatively high (between 5-12%). […] The sensors were slowly raised 5±2 μm from the surface of a single endothelial cell. The eNOS agonist, calcium ionophore A23187 (CaI) as well as the different drugs were then added to the surrounding media at the cell surface with a nanoinjector that was also positioned by a computer controlled-micromanipulator.
This example describes the genotype-specific response of the three major eNOS variants to 1 μM and 5 μM concentrations of LA-419. The three major genetic polymorphisms studied were the Glu298Asp variant (E298D or 894G→T) in exon 7 of […], the −786T→C variant in the promoter region, and the intron 4 polymorphism (VNTR). All of these variants have possible effects on the cardiovascular system and endothelial dysfunction. For this study, human umbilical vein endothelial cells (HUVECs) from 50 donors between 18 and 32 years of age were used.
For the analysis several analysis techniques were employed. First, the effect of genotype on NO and ONOO^− release was explored within the different concentrations of LA-419 (control, 1 μM, 5 μM), calculated as the average peak release (nmols/L) of NO, ONOO^−, and NO/ONOO^−. The effect of genotype on the net increase in NO, ONOO^−, and NO/ONOO^− for LA-419 (1 μM and 5 μM) as compared to control was also measured. In addition, an analysis was done on the effect of genotype on the % change in NO, ONOO^−, and NO/ONOO^− production for LA-419 (1 μM and 5 μM), calculated as:
% Change=[(avg. LA-419−avg. control)/(avg. control)]*100
Finally, an evaluation was undertaken concerning the effect of genotype on the production of NO, ONOO^−, and NO/ONOO^− as the fold difference of control for LA-419 (1 μM and 5 μM), calculated as:
Fold Difference=(avg. LA-419)/(avg. control)
Within each calculation technique the results were compared for statistical significance using a non-parametric ANOVA Kruskal-Wallace test or a non-parametric Mann-Whitney U test. Statistical significance was set at a p-value <0.05 in a two-tailed distribution. […]

[1] = 1 μM LA-419, Intron 4 variant b/a, a/a, c/c (n=14)
[2] = 1 μM LA-419, Intron 4 variant b/b (n=31)
[3] = 5 μM LA-419, Intron 4 variant b/a, a/a, c/c (n=14)
[4] = 5 μM LA-419, Intron 4 variant b/b (n=31)
[5] = Combination of all G894T + T-786C genotypes but G/G + T/T, n=31
[6] = Combination of all G894T + T-786C genotypes but T/T + C/C, n=46

## CC(=O)SC1COC2C(O[N+](=O)[O-])COC12 (stereo not drawn) [LA-419, S-(6-Nitro-oxi-hexahydro-furo[3,2-b]furan-3-1-il)thioacetate]
[1]
  NO % Change (mean ± sd): 11.76 (29.57) %
  NO/ONOO− % Change (mean ± sd): 28.01 (62.22) %
  ONOO− % Change (mean ± sd): −2.68 (29.78) %
[2]
  NO % Change (mean ± sd): 13.46 (23.13) %
  NO/ONOO− % Change (mean ± sd): 43.27 (71.09) %
  ONOO− % Change (mean ± sd): −10.24 (27.17) %
[3]
  NO % Change (mean ± sd): 16.16 (6.09) %
  NO/ONOO− % Change (mean ± sd): 44.37 (12.85) %
  ONOO− % Change (mean ± sd): −19.27 (5.27) %
[4]
  NO % Change (mean ± sd): 13.52 (6.80) %
  NO/ONOO− % Change (mean ± sd): 42.24 (17.73) %
  ONOO− % Change (mean ± sd): −19.19 (7.76) %
[5]
  Fold difference NO (mean ± sd): 1.14 (0.26)
  Fold difference NO/ONOO− (mean ± sd): 1.41 (0.71)
  Fold difference ONOO− (mean ± sd): 0.92 (0.30)
[6]
  Fold difference NO (mean ± sd): 1.13 (0.25)
  Fold difference NO/ONOO− (mean ± sd): 1.37 (0.68)
  Fold difference ONOO− (mean ± sd): 0.93 (0.28)
G894T + T-786C G/G + T/C, n=8
  Fold difference NO (mean ± sd): 1.03 (0.17)
  Fold difference NO/ONOO− (mean ± sd): 1.07 (0.37)
  Fold difference ONOO− (mean ± sd): 1.07 (0.36)
G894T + T-786C G/G + T/T, n=18
  Fold difference NO (mean ± sd): 1.10 (0.20)
  Fold difference NO/ONOO− (mean ± sd): 1.28 (0.57)
  Fold difference ONOO− (mean ± sd): 0.94 (0.23)
G894T + T-786C G/T + C/C, n=1
  Fold difference NO (mean ± sd): 0.86 (0)
  Fold difference NO/ONOO− (mean ± sd): 0.49 (0)
  Fold difference ONOO− (mean ± sd): 1.77 (0)
G894T + T-786C G/T + T/C, n=13
  Fold difference NO (mean ± sd): 1.28 (0.33)
  Fold difference NO/ONOO− (mean ± sd): 1.70 (0.81)
  Fold difference ONOO− (mean ± sd): 0.81 (0.15)
G894T + T-786C G/T + T/T, n=4
  Fold difference NO (mean ± sd): 1.08 (0.03)
  Fold difference NO/ONOO− (mean ± sd): 1.12 (0.18)
  Fold difference ONOO− (mean ± sd): 0.98 (0.18)
G894T + T-786C T/T + C/C, n=1
  Fold difference NO (mean ± sd): 1.02 (0)
  Fold difference NO/ONOO− (mean ± sd): 1.23 (0)
  Fold difference ONOO− (mean ± sd): 0.83 (0)
G894T + T-786C T/T + C/C, n=3
  Fold difference NO (mean ± sd): 1.07 (0.06)
  Fold difference NO/ONOO− (mean ± sd): 1.20 (0.04)
  Fold difference ONOO− (mean ± sd): 0.89 (0.06)
G894T + T-786C T/T + T/C, n=2
  Fold difference NO (mean ± sd): 1.11 (0.36)
  Fold difference NO/ONOO− (mean ± sd): 2.25 (1.17)
  Fold difference ONOO− (mean ± sd): 0.52 (0.11)
G894T G/G & G/T, n=44
  Fold difference NO (mean ± sd): 1.13 (0.25)
  Fold difference NO/ONOO− (mean ± sd): 1.34 (0.64)
  Fold difference ONOO− (mean ± sd): 0.95 (0.27)
G894T G/G, n=26
  Fold difference NO (mean ± sd): 1.08 (0.19)
  Fold difference NO/ONOO− (mean ± sd): 1.22 (0.52)
  Fold difference ONOO− (mean ± sd): 0.98 (0.27)
G894T G/T & T/T, n=23
  Fold difference NO (mean ± sd): 1.18 (0.28)
  Fold difference NO/ONOO− (mean ± sd): 1.53 (0.77)
  Fold difference ONOO− (mean ± sd): 0.87 (0.26)
G894T G/T, n=18
  Fold difference NO (mean ± sd): 1.21 (0.30)
  Fold difference NO/ONOO− (mean ± sd): 1.50 (0.77)
  Fold difference ONOO− (mean ± sd): 0.90 (0.27)
G894T T/T, n=5
  Fold difference NO/ONOO− (mean ± sd): 1.62 (0.82)
  Fold difference ONOO− (mean ± sd): 0.75 (0.21)
Intron 4 a/a, n=1
  Fold difference NO (mean ± sd): 1.09 (0)
  Fold difference NO/ONOO− (mean ± sd): 1.23 (0)
  Fold difference ONOO− (mean ± sd): 0.89 (0)
Intron 4 a/a, n=3
  Fold difference NO (mean ± sd): 0.95 (0.25)
  Fold difference NO/ONOO− (mean ± sd): 0.96 (0.45)
  Fold difference ONOO− (mean ± sd): 1.10 (0.34)
Intron 4 b/a, a/a, c/c, n=14
  Fold difference NO (mean ± sd): 1.13 (0.23)
  Fold difference NO/ONOO− (mean ± sd): 1.28 (0.62)
  Fold difference ONOO− (mean ± sd): 0.97 (0.30)
Intron 4 b/a, n=10
  Fold difference NO (mean ± sd): 1.21 (0.28)
  Fold difference NO/ONOO− (mean ± sd): 1.43 (0.65)
  Fold difference ONOO− (mean ± sd): 0.93 (0.31)
Intron 4 b/b, b/a, c/c, n=42
  Fold difference NO (mean ± sd): 0.95 (0.25)
  Fold difference NO/ONOO− (mean ± sd): 1.42 (0.69)
  Fold difference ONOO− (mean ± sd): 0.91 (0.27)
Intron 4 b/b, n=31
  Fold difference NO (mean ± sd): 1.13 (0.23)
  Fold difference NO/ONOO− (mean ± sd): 1.43 (0.71)
  Fold difference ONOO− (mean ± sd): 0.90 (0.27)
Intron 4 c/c, n=1
  Fold difference NO (mean ± sd): 0.73 (0)
  Fold difference NO/ONOO− (mean ± sd): 0.74 (0)
  Fold difference ONOO− (mean ± sd): 0.99 (0)
T-786C C/C, n=1
  Fold difference NO (mean ± sd): 1.02 (0)
  Fold difference NO/ONOO− (mean ± sd): 1.23 (0)
  Fold difference ONOO− (mean ± sd): 0.83 (0)
T-786C C/C, n=4
  Fold difference NO (mean ± sd): 1.02 (0.12)
  Fold difference NO/ONOO− (mean ± sd): 1.03 (0.36)
